As a reminder, the IC50 is the point on the concentration scale where inhibition reaches its midpoint.

Structures are written as SMILES.

This test deals with T1, recombinant human AKR1C3 (Homo sapiens, UniProt P42330).
T1 construct: GST (cleaved yes); made in house; host or cells: E. coli
T1 sequence (P42330 1-323): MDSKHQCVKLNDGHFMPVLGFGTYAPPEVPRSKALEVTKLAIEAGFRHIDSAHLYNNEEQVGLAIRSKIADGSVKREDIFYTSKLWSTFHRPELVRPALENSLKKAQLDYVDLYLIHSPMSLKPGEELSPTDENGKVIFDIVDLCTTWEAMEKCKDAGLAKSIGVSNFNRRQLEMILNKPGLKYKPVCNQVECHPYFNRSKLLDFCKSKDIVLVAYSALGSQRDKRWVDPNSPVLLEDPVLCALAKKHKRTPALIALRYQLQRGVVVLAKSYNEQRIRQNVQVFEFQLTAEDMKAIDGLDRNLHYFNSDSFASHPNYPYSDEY
Put plainly: AKR1C3-inhibitory activity assay (generation of Coumberol from Coumberone). In kind it is biochemical. To be noted: Coumberone 0.3 μM, NADPH 10 μM, 22° C., typically 90 min, average or median values. In a few lines:
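Recombinant human AKR1C3 (E. coli GST fusion, GST removed; ~1 nM) preincubated 15 min with compound, then NADPH 10 μM and Coumberone 0.3 μM (final), 22 °C, typically 90 min, in 50 mM K-phosphate pH 7. Stopped with EM-1404 (1 μM final); Coumberol fluorescence read at 520 nm (ex 380 nm), normalized to no-inhibitor and no-enzyme controls.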
Regarding `C[C@@H]1CN(C(=O)c2cnn[nH]2)[C@@H](C)CN1S(=O)(=O)c1ccccc1C(F)(F)F` [Example 6, [(2S,5R)-2,5-dimethyl-4-{[2-(trifluoromethyl)phenyl]sulfonyl}piperazin-1-yl](1H-1,2,3-triazol-5-yl)methanone], the IC50 was found to be 2 nM.

On to `C[C@@H]1CN(C(=O)c2cnn[nH]2)C[C@H](C)N1S(=O)(=O)c1cccc(Cl)c1` [Example 39, {(3R,5S)-4-[(3-chlorophenyl)sulfonyl]-3,5-dimethylpiperazin-1-yl}(1H-1,2,3-triazol-5-yl)methanone], for which the IC50 came to 3 nM.

As for `C[C@@H]1CN(C(=O)c2cnn[nH]2)[C@@H](C)CN1S(=O)(=O)c1cccc(C#N)c1` [Example 83, 3-{[(2R,5S)-2,5-dimethyl-4-(1H-1,2,3-triazol-5-ylcarbonyl)piperazin-1-yl]sulfonyl}benzonitrile], the IC50 stood at 3 nM.

For `CC1(C)CN(C(=O)c2cnn[nH]2)CCN1S(=O)(=O)c1ccc(F)cc1` [Example 30, {4-[(4-fluorophenyl)sulfonyl]-3,3-dimethylpiperazin-1-yl}(1H-1,2,3-triazol-5-yl)methanone], the concentration for half-maximal inhibition (IC50) was found to be 71 nM.

In the case of `COc1ccc(Cl)cc1S(=O)(=O)N1CCN(C(=O)c2cnn[nH]2)CC1(C)C` [Example 124, {4-[(5-chloro-2-methoxyphenyl)sulfonyl]-3,3-dimethylpiperazin-1-yl}(1H-1,2,3-triazol-5-yl)methanone], the IC50 amounted to 96 nM.

Take `CC1(C)CN(C(=O)c2c[nH]nn2)CCN1S(=O)(=O)c1cccc(C(F)(F)F)c1` [Example 28, (3,3-dimethyl-4-{[3-(trifluoromethyl)phenyl]sulfonyl}piperazin-1-yl)(1H-1,2,3-triazol-4-yl)methanone]: the IC50 was 3 nM.

For the molecule `C[C@@H]1CN(S(=O)(=O)c2ccc(F)c(F)c2)C[C@H](C)N1C(=O)c1c[nH]nn1` [Example 60, {(2R,6S)-4-[(3,4-difluorophenyl)sulfonyl]-2,6-dimethylpiperazin-1-yl}(1H-1,2,3-triazol-4-yl)methanone], the IC50 came to 47 nM.

As to `C[C@@H]1CN(S(=O)(=O)c2cccc(Cl)c2F)C[C@H](C)N1C(=O)c1c[nH]nn1` [Example 55, {(2R,6S)-4-[(3-chloro-2-fluorophenyl)sulfonyl]-2,6-dimethylpiperazin-1-yl}(1H-1,2,3-triazol-4-yl)methanone], the half-inhibitory concentration (IC50) was determined as 10 nM.

Regarding `CC1(C)CN(C(=O)c2c[nH]nn2)CCN1S(=O)(=O)c1cc(Cl)ccc1Cl` [Example 25, {4-[(2,5-dichlorophenyl)sulfonyl]-3,3-dimethylpiperazin-1-yl}(1H-1,2,3-triazol-4-yl)methanone], the IC50 is 7 nM.

As to `CC1(C)CN(C(=O)c2cnn[nH]2)CCN1S(=O)(=O)c1cc(Cl)ccc1F` [Example 127, {4-[(5-chloro-2-fluorophenyl)sulfonyl]-3,3-dimethylpiperazin-1-yl}(1H-1,2,3-triazol-5-yl)methanone], the IC50 came to 4 nM.

Consider `COc1cccc(S(=O)(=O)N2C[C@H](C)N(C(=O)c3cnn[nH]3)C[C@H]2C)c1` [Example 87, {(2S,5R)-4-[(3-methoxyphenyl)sulfonyl]-2,5-dimethylpiperazin-1-yl}(1H-1,2,3-triazol-5-yl)methanone], for which the IC50 was determined as 2 nM.

For the molecule `Cc1c(Cl)cccc1S(=O)(=O)N1C[C@@H](C)N(C(=O)c2cnn[nH]2)[C@@H](C)C1` [Example 103, {(2R,6S)-4-[(3-chloro-2-methylphenyl)sulfonyl]-2,6-dimethylpiperazin-1-yl}(1H-1,2,3-triazol-5-yl)methanone], the IC50 was determined as 2 nM.

On to `C[C@@H]1CN(C(=O)c2cnn[nH]2)[C@@H](C)CN1S(=O)(=O)c1ccccc1F` [Example 5, {(2S,5R)-4-[(2-fluorophenyl)sulfonyl]-2,5-dimethylpiperazin-1-yl}(1H-1,2,3-triazol-5-yl)methanone], for which the IC50 was found to be 2 nM.

Take `C[C@@H]1CN(C(=O)c2cnn[nH]2)[C@@H](C)CN1S(=O)(=O)c1ccccc1` [Example 1, [(2S,5R)-2,5-dimethyl-4-(phenylsulfonyl)piperazin-1-yl](1H-1,2,3-triazol-5-yl)methanone]: the IC50 was 2 nM.

`C[C@@H]1CN(C(=O)c2cnn[nH]2)[C@@H](C)CN1S(=O)(=O)c1ccc(C#N)cc1` [Example 15, 4-{[(2R,5S)-2,5-dimethyl-4-(1H-1,2,3-triazol-5-ylcarbonyl)piperazin-1-yl]sulfonyl}benzonitrile]: the IC50 stood at 55 nM.

Turning to `C[C@@H]1CN(S(=O)(=O)c2ccc(Cl)cc2)C[C@H](C)N1C(=O)c1cnn[nH]1` [Example 95, {(2R,6S)-4-[(4-chlorophenyl)sulfonyl]-2,6-dimethylpiperazin-1-yl}(1H-1,2,3-triazol-5-yl)methanone], the IC50 was 20 nM.

Regarding `CC1(C)CN(C(=O)c2c[nH]nn2)CCN1S(=O)(=O)c1cccc(Cl)c1F` [Example 24, {4-[(3-chloro-2-fluorophenyl)sulfonyl]-3,3-dimethylpiperazin-1-yl}(1H-1,2,3-triazol-4-yl)methanone], the IC50 was 8 nM.

Turning to `COc1ccccc1S(=O)(=O)N1C[C@H](C)N(C(=O)c2cnn[nH]2)C[C@H]1C` [Example 16, {(2S,5R)-4-[(2-methoxyphenyl)sulfonyl]-2,5-dimethylpiperazin-1-yl}(1H-1,2,3-triazol-5-yl)methanone], the IC50 came out at 4 nM.

In the case of `C[C@@H]1CN(C(=O)c2cnn[nH]2)[C@@H](C)CN1S(=O)(=O)c1ccc(OC(F)(F)F)cc1` [Example 71, [(2S,5R)-2,5-dimethyl-4-{[4-(trifluoromethoxy)phenyl]sulfonyl}piperazin-1-yl](1H-1,2,3-triazol-5-yl)methanone], the IC50 turned out to be 22 nM.

As to `C[C@@H]1CN(C(=O)c2cnn[nH]2)[C@@H](C)CN1S(=O)(=O)c1cccc2ccccc12` [Example 65, [(2S,5R)-2,5-dimethyl-4-(naphthalen-1-ylsulfonyl)piperazin-1-yl](1H-1,2,3-triazol-5-yl)methanone], the IC50 worked out at 2 nM.

As to `CC1(C)CN(C(=O)c2cnn[nH]2)CCN1S(=O)(=O)c1cccc(Cl)c1Cl` [Example 119, {4-[(2,3-dichlorophenyl)sulfonyl]-3,3-dimethylpiperazin-1-yl}(1H-1,2,3-triazol-5-yl)methanone], the IC50 worked out at 9 nM.

For `CC(=O)Nc1ccc(S(=O)(=O)N2C[C@H](C)N(C(=O)c3cnn[nH]3)C[C@H]2C)cc1` [Example 62, N-(4-{[(2R,5S)-2,5-dimethyl-4-(1H-1,2,3-triazol-5-ylcarbonyl)piperazin-1-yl]sulfonyl}phenyl)acetamide], the IC50 came out at 88 nM.
